Reference: the RepoRT retention time repository (doi:10.1021/acs.analchem.1c00972)

Test: RP, Waters ACQUITY UPLC BEH C18, 100 × 1 mm, 1.7 µm, 50 °C, 0.3 mL/min, estimated dead time 0.17 min; A: water + 0.1% formic acid + 20 mM ammonium formate; B: methanol + 0.1% formic acid + 20 mM ammonium formate; gradient (min/%B) 0/0 15/100 21/100 22/0 30/0
Details: stereoisomer not certain

LC retention time | SMILES
18.3 min | CCCCCCCCSCCOCCOCCOCCO [3,6,9-Trioxa-12-thia-eicosanol]
8.48 min | CCC=Nc1c([N+](=O)[O-])cc(C)c(C)c1[N+](=O)[O-] [Pendimethalin-desethyl]
8.18 min | O=C(NCCN1CCOCC1)c1ccc(Cl)cc1 [Moclobemide]
14.3 min | Cc1cccc(O)c1 [3-Methylphenol]
6.1 min | CN1CCN(C)C1=O [1,3-Dimethyl-2-imidazolidinone]
4.9 min | NC1CCCCC1 [Cyclohexylamine]
11.9 min | CCNc1nc(=S)nc(NC(C)(C)C)[nH]1 [Terbutryn-desmethyl]
9.29 min | Cc1cccc(C)c1N(Cn1cccn1)C(=O)C(=O)O [Metazachlor BH 479-4 (Metazachlor oxanilic acid (OA))]
16.1 min | CC(CCC(=O)O)C1CCC2C3C(O)CC4CC(O)CCC4(C)C3CC(O)C12C (configuration not stated) [Cholic acid]
13.6 min | CCOc1ccc2ccccc2c1C(=O)NC1C(=O)N2C1SC(C)(C)C2C(=O)O (configuration not stated) [Nafcillin]
9.32 min | O=C(O)c1ccc2ncsc2c1 [Benzothiazole-6-carbons<e4>ure]
17 min | CCCCCCCCn1sc(Cl)c(Cl)c1=O [DCOIT]
10.7 min | CCNC(=O)c1cccc(C)c1 [N-Ethyl-3-methylbenzamide]
18.4 min | CCCCCCCCCCCCCCCC(=O)NCCO [Palmitoylethanolamide]
13.3 min | CC(C)(C)Nc1nc(=O)[nH]c(=O)[nH]1
5 min | C=CC1CNC(=S)O1 (configuration not stated) [Goitrin]
15.3 min | CCOC(=O)OC1(C(=O)COC(=O)CC)CCC2C3CCC4=CC(=O)C=CC4(C)C3C(O)CC21C (configuration not stated) [Prednicarbate]
4.7 min | NC(Cc1ccccc1)C(=O)O (configuration not stated) [phenylalanine]
21.4 min | CC(C)CCCC(C)C1CCC2C3CC=C4CC(O)CCC4(C)C3CCC12C (configuration not stated) [Cholesterol]
21.3 min | CCC(C=CC(C)C1CCC2C3CC=C4CC(O)CCC4(C)C3CCC12C)C(C)C (configuration not stated) [Stigmasterol]

LC retention time | SMILES
6.8 min | O=C(O)c1cc(=O)c2cccc(O)c2[nH]1 [Xanthurenic acid]
9.9 min | O=C(O)CC1(C(=O)O)CCCCC1 [Gabapentin Related Compound E]
16 min | CCN(CC)CCOC(=O)C(Cc1cccc2ccccc12)CC1CCCO1 (configuration not stated) [Nafronyl]
5.5 min | COC1CC(OC2C(C)OC(OC3C(C)=CCC4CC(CC5(CCC(C)C(C(C)C)O5)O4)OC(=O)C4C=C(C)C(O)C5OCC(=CC=CC3C)C45O)CC2OC)OC(C)C1O (configuration not stated) [Ivermectin B1b]
15.6 min | O=P(OCC(Cl)CCl)(OCC(Cl)CCl)OCC(Cl)CCl (configuration not stated) [Tris(2,3-dichloropropyl) phosphate]
8 min | NC(=O)Cc1c[nH]c2ccccc12 [indoleacetamide]
8.02 min | NS(=O)(=O)Cc1noc2ccccc12 [Zonisamide]
4.8 min | O=c1ccn(C2OC(CO)C(O)C2(F)F)c(=O)[nH]1 (configuration not stated) [2',2'-Difluoro-2'-deoxyuridine]
14 min | O=C1CCCCCCCCCCCN1 [Dodecane-12-lactam]
13.2 min | CCOC(=O)C1CC(=O)C(=C(O)C2CC2)C(=O)C1 (configuration not stated) [Trinexapac-ethyl]
11.4 min | O=c1c(O)c(-c2ccc(O)c(O)c2)oc2cc(O)cc(O)c12 [Quercetin]
8.3 min | CN(C)c1ccc(O)c2c1CC1CC3C(N(C)C)C(=O)C(C(N)=O)=C(O)C3(O)C(=O)C1=C2O (configuration not stated) [Minocyclin]
7.7 min | O=C1CC[C@@H](C(=O)O)N1 [L-Pyroglutamic acid]
5.8 min | Cn1c(=O)c2[nH]c(=O)[nH]c2n(C)c1=O [1,3-Dimethyluric acid]
12.4 min | Cc1cc(C(C)(C)C)cc(C)c1CC1=NCCN1 [Xylometazoline]
6.7 min | O=C(O)Cc1c[nH]c2ccc(O)cc12 [5-Hydroxyindole-3-acetic acid]
13.6 min | COCCCOc1cc(CC(CC(N)C(O)CC(C(=O)NCC(C)(C)C(N)=O)C(C)C)C(C)C)ccc1OC (configuration not stated) [Aliskiren]
8.24 min | Nc1ccc2nc3ccc(N)cc3nc2c1 [2,8-Diaminophenazine]
15.5 min | CCOCN(C(=O)C(=O)O)c1c(C)cccc1CC [Acetochlor OA]
15.2 min | CC(=O)C1CCC2C3CC=C4CC(O)CCC4(C)C3CCC12C (stereo not drawn) [5-Pregnen-3.beta.-ol-20-one]

LC retention time | SMILES
17.6 min | Cc1cc(-n2nc3ccc(Cl)cc3n2)c(O)c(C(C)(C)C)c1 [UV-326]
8.4 min | O=C(O)C1OC(Oc2ccc3c(=O)c(-c4ccc(O)cc4)coc3c2)C(O)C(O)C1O (configuration not stated) [Daidzein_glucuronide]
14 min | O=C(O)c1cccc(Oc2cccc(C(F)(F)F)c2)n1 [Picolinafen-OH-O-dealkylation]
13.5 min | c1ccc(Oc2ccccc2)cc1 [Diphenylether]
6 min | CC(C)(C)NCC(O)c1ccc(O)c(CO)c1 (configuration not stated) [Albuterol]
4.31 min | CC(C)Nc1nc(N)[nH]c(=O)n1 [Atrazin-desethyl-2-hydroxy]
13.6 min | O=c1c2ccccc2oc2ccccc12 [Xanthon]
12.1 min | O=c1cc(-c2ccccc2)c2c(O)cc(O)cc2o1 [5,7-Dihydroxy-4-phenylcoumarin]
13.5 min | CC(=O)c1ccc2ccccc2c1 [2-Acetonaphthone]
14.3 min | Cc1ccc(O)cc1 [4-Methylphenol]
7.76 min | CCC(C(N)=O)(C(N)=O)c1ccccc1 [PEMA]
12.3 min | CCCCCCCC(O)CC(=O)O (configuration not stated) [3-Hydroxycapric acid]
6.13 min | CCN(CCO)c1cccc(C)c1 [2-(N-Ethyl-N-m-toluidino)ethanol]
9.75 min | CC1OC(OCC2OC(Oc3c(-c4ccc(O)c(O)c4)oc4cc(O)cc(O)c4c3=O)C(O)C(O)C2O)C(O)C(O)C1O (configuration not stated) [Rutin]
18.5 min | CC(C)(N)CN [1,2-Diamino-2-methylpropane]
13.5 min | CC1CN(C2CCCCCCCCCCC2)CC(C)O1 (configuration not stated) [Dodemorph]
9.82 min | CC(C)(C)c1n[nH]c(=O)n(N)c1=O [Metribuzin-diketo]
10.2 min | Cc1cccc(C)c1NC(=O)CCl [Metazachlor-N-dealkylation]
9.5 min | C=CC1CN2CCC1CC2C(O)c1ccnc2ccc(OC)cc12 (configuration not stated) [quinidine]

SMILES | LC retention time
CCCCCCCCCCCCOC(=O)c1ccccc1C(=O)OCCCCCCCCCCCC [Didodecylphthalate] | 21.7 min
CC(C)Nc1nc(Cl)nc(NC(C)C)n1 [Propazin] | 14 min
NCCc1ccc(O)cc1 [tyramine] | 2.5 min
CCOP(=O)(OCC)Oc1nc(Cl)c(Cl)cc1Cl [Chlorpyrifos-oxon] | 15.2 min
CCC(C(N)=O)N1CCCC1=O (configuration not stated) [levetiracetam] | 6.9 min
Cc1cc(Cl)ccc1N=CN(C)C [Chlordimeform] | 8.37 min
CC1CCCCC1NC(=O)Nc1ccccc1 (configuration not stated) [Siduron] | 13.9 min
c1ccc2c(c1)Nc1ccccc1S2 [Phenothiazine] | 14.9 min
CC(C)OC(=O)Nc1ccccc1 [Propham] | 12.7 min
Cc1ccccc1O [2-Methylphenol] | 14.3 min
Oc1ccc(C(=C(Cl)Cl)c2ccc(O)cc2)cc1 [Bisphenol C-dichloride] | 10.5 min
O=[N+]([O-])Nc1nccn1Cc1ccc(Cl)nc1 [Imidacloprid-olefin] | 7.92 min
CON(C)C(=O)Nc1ccc(Cl)cc1 [Monolinuron] | 12.2 min
CCC1(O)C(=O)OCc2c1cc1n(c2=O)Cc2cc3ccccc3nc2-1 (configuration not stated) [Camptothecin] | 12 min
CCOP(=O)(OCC)Oc1cc(C)nc(C(C)C)n1 [Diazoxon / Diazinon-oxon] | 15.7 min
CNC(=O)NCc1cnc(Cl)s1 | 7.69 min
CC(=O)N1N=C(c2ccc(N)cc2)c2cc3c(cc2CC1C)OCO3 (configuration not stated) [Talampanel] | 11.5 min

SMILES | LC retention time
CN(C)C(=O)Nc1ccc(-n2nc(C(C)(C)C)oc2=O)c(Cl)c1 [Dimefuron] | 13.6 min
NC(=O)N=C1SCCN1Cc1ccc(Cl)nc1 [Thiacloprid amide] | 8.82 min
CNC(=O)ON=C(SC)C(=O)N(C)C [Oxamyl] | 7.21 min
CCSCCSP(=O)(OC)OC [Demeton-S-methyl] | 11.8 min
Cc1ccc(OP(=O)(Oc2ccccc2)Oc2ccc(C)cc2)cc1 [Ditolyl phenyl phosphate] | 14 min
CNC(C)C(O)c1ccccc1 (configuration not stated) [ephedrine] | 7.4 min
Nc1cc(Cl)cc(Cl)c1 [3,5-Dichloroaniline] | 17.6 min
CCOC(=O)CC(SP(=S)(OC)OC)C(=O)OCC (configuration not stated) [Malathion] | 14.3 min
COc1nn(CSP(=S)(OC)OC)c(=O)s1 [Methidation] | 13.2 min
CCCCCCCCc1ccc(O)cc1 [4-n-Octylphenol] | 16.9 min
CCc1cccc(C)c1NC(=O)CCl [Metolachlor-N-dealkylation] | 13.7 min
CC(c1ccc(O)cc1)c1ccc(O)cc1 [Bisphenol E] | 11.5 min
CCOc1cc(Oc2ccc(C(F)(F)F)cc2Cl)ccc1[N+](=O)[O-] [Oxyfluorfen] | 16.8 min
COP(N)(=S)Oc1ccccc1C(=O)OC(C)C (configuration not stated) [Isocarbophos] | 13.2 min
COc1ccc2c3c1OC1C(O)CCC4C(C2)N(C)CCC341 (configuration not stated) [Dihydrocodein] | 6.74 min
CCNc1nc(Cl)nc(NC(C)(C)C#N)n1 [Cyanazin] | 11.3 min
